# Laboratory results reported in patent US4820727A, “N-acyl-N-naphthoylglycines as aldose reductase inhibitors” (American Home Products Corporation, priority 1987, dated 1989).
# Experiments:
# dulcitol accumulation = assay: Galactosemic rats, % lowering of dulcitol (galactitol) accumulation in vivo; parameters: species or system Sprague-Dawley rats; conditions: for % Lowering dulcitol accumulation IN VIVO, D: diaphragm; for % Lowering dulcitol accumulation IN VIVO, D / % Lowering dulcitol accumulation IN VIVO, L: 4 days; for % Lowering dulcitol accumulation IN VIVO, L: lens
# Source text: Such experiments are exemplified hereinbelow after the listing of the following general comments pertaining to these experiments:
# (a) Four or more groups of six male rats, 50-70 g, Sprague-Dawley strain, were used. The first group, the control group, was fed a mixture of laboratory chow (rodent Laboratory Chow, Purina) and glucose at 20% (w/w %) concentration. […] The test compound was either admixed to the diet or administered by gavage. In experiments involving compound administration in the diet, the average dose administered was calculated from the actual food intake of the animals in each group. The concentration of galactose in the diet of the treated groups was the same as that for the untreated galactosemic group.
# (b) After four days, the animals were killed by decapitation. The eyeballs were removed and punctured with a razor blade; the freed lenses were rolled gently on filter paper and weighed. The sciatic nerves were dissected as completely as possible and weighed. Both tissues when frozen can be kept up to two weeks before being analyzed for galactitol.
# Only two minor reagent changes were made: (a) the rinsing mixture was an aqueous 5% (w/v) trichloroacetic acid solution and (b) the stock solution was prepared by dissolving 25 mg of dulcitol in 100 mL of an aqueous trichloroacetic acid solution. [N.B.: For each experiment the average value found in the tissue from rats fed the glucose diet was subtracted from the individual values found in the corresponding tissue in galactose-fed rats to obtain the amount of polyol accumulated.]
# The figures under L, N, and D represent the percentage decrease of galactitol accumulation in the tissues of the lens, sciatic nerve, and diaphragm, respectively, for treated rats as compared to untreated rats.
# [1] = system: Sciatic Nerve Polyol Accumulation; assay: Two-Week Streptozocin-Diabetic Rat Model, % lowering of sciatic nerve polyol accumulation; type: in vivo, Sprague-Dawley rats; conditions: gavage, 14 days
# Source text: A second in vivo model examined the effect of the compounds of the present invention on sorbitol accumulation in the tissues of 14-day streptozocin (STZ) (Upjohn) diabetic rats.
# In each of the studies male Sprague-Dawley rats from Charles River Labs, Kingston, NY, weighing 200 to 250 g, were used. The animals were weighed and observed for 5 days prior to the start of the study.
# In each study the rats were randomly assigned by weight into groups of 15 animals except for group I which contained 8 animals. The groups were treated as follows:
# Group II: STZ, 110 mg/kg i.p.
# Group IV: STZ, 110 mg/kg i.p. followed by various doses of a compound of the present invention given by gavage for 14 days, beginning on the day of induction of diabetes.
# Following an overnight fast (water ad lib) the animals in groups II-IV were given by i.p. injection 110 mg STZ per kg body weight. The STZ was dissolved in cold citric acid, 0.03M, pH 4.5 and injected within 5 minutes of being dissolved. Control rats (group I) were injected with buffer only. One hour following the injection, standard laboratory chow (Rodent lab chow 5001, Purina) was placed in the cages.
# Two days after STZ injection plasma glucose levels (from the tail vein) were determined following a 4 hour fast. Excluded from the study were animals whose plasma glucose was below 300 mg/dl. Control animals with plasma glucose levels greater than 200 mg/dl were also excluded.
# On the morning of the 14th day following STZ injection the animals were fasted 4 hours prior to sacrificing by decapitation. The blood was collected into heparin containing tubes and placed on ice. Both lenses and sciatic nerves were removed immediately, weighed, frozen, and stored at -20° C. until analyzed for sorbitol. The RBCs were collected by centrifugation, the plasma was removed and the cells were washed once with 10 volumes of cold saline. The washed packed RBCs were divided into 1 mL aliquots, extracted with cold perchloric acid and the acid extracts were stored at -20° C. until analyzed for sorbitol.
# aldose reductase = target: T1, aldose reductase (Bos taurus, UniProt P16116); assay: In vitro aldose reductase inhibition (modified Hayman and Kinoshita procedure, enzyme from bovine lens); type: biochemical; conditions: for inhibition at 0.04 µM: read-out: % Inhibition IN VITRO 4 × 10^-8 M; for inhibition at 10 µM: read-out: % Inhibition IN VITRO 10^-5 M; for inhibition at 1 µM: read-out: % Inhibition IN VITRO 10^-6 M; for inhibition at 0.1 µM: read-out: % Inhibition IN VITRO 10^-7 M
# T1 construct: preparation of the enzyme from bovine lens; from tissue; host or cells: bovine lens
# Source text: In the present case the procedure of Hayman and Kinoshita was modified in that the final chromatography step was omitted in the preparation of the enzyme from bovine lens.
# [2] = system: Sciatic Nerve Polyol Accumulation; assay: Two-Week Streptozocin-Diabetic Rat Model, % lowering of sciatic nerve polyol accumulation; type: in vivo, Sprague-Dawley rats; conditions: gavage, 14 days; remark: listed apart in the source
# [3] = 15 mg/kg, N.S. = not significant
# [4] = 5.2 mg/kg, N.S. = not significant
# [5] = 27 mg/kg, N.S. = not significant
structure (smiles),measurement,setting,value
"COC(=O)N(CC(=O)O)C(=O)c1c(F)ccc2c(C(F)(F)F)c(OC)ccc12 [Example 1, N-[[2-fluoro-6-methoxy-5-(trifluoromethyl)-1-naphthalenyl]carbonyl]-N-(methoxycarbonyl)glycine]",results in the sciatic nerve compared with tolrestat,"dulcitol accumulation; 10 mg/kg/day vs tolrestat at 9 mg/kg/day, sciatic nerve",comparable results
same,"% Lowering dulcitol accumulation IN VIVO, D",dulcitol accumulation; 5 mg/kg,52%
same,"% Lowering dulcitol accumulation IN VIVO, D",dulcitol accumulation; 10 mg/kg,62%
same,"% Lowering dulcitol accumulation IN VIVO, L","dulcitol accumulation; 5 mg/kg, N.S. = not significant",N.S.
same,"% Lowering dulcitol accumulation IN VIVO, L","dulcitol accumulation; 10 mg/kg, N.S. = not significant",N.S.
same,"% Lowering dulcitol accumulation IN VIVO, L","dulcitol accumulation; 14 mg/kg, N.S. = not significant",N.S.
same,"% Lowering dulcitol accumulation IN VIVO, L",dulcitol accumulation; [3],N.S.
same,"% Lowering of Sciatic Nerve Polyol Accumulation, Sorbitol (%)",[1]; 2 mg/kg,38%
same,"% Lowering of Sciatic Nerve Polyol Accumulation, Sorbitol (%)",[1]; 5 mg/kg,39%
same,"% Lowering of Sciatic Nerve Polyol Accumulation, Sorbitol (%)",[1]; 10 mg/kg,85%
same,"% Lowering of Sciatic Nerve Polyol Accumulation, Sorbitol (%)",[1]; 15 mg/kg,85%
same,inhibition at 0.04 µM,aldose reductase,59%
same,inhibition at 10 µM,aldose reductase,99%
same,inhibition at 1 µM,aldose reductase,95%
same,inhibition at 0.1 µM,aldose reductase,86%
same,"% Lowering of Sciatic Nerve Polyol Accumulation, Fructose (%)",[2]; 2 mg/kg,22%
same,"% Lowering of Sciatic Nerve Polyol Accumulation, Fructose (%)",[2]; 5 mg/kg,36%
same,"% Lowering of Sciatic Nerve Polyol Accumulation, Fructose (%)",[2]; 10 mg/kg,72%
same,"% Lowering of Sciatic Nerve Polyol Accumulation, Fructose (%)",[2]; 15 mg/kg,86%
"COC(=O)N(CC(N)=O)C(=O)c1c(F)ccc2c(C(F)(F)F)c(OC)ccc12 [Example 2, [[[2-Fluoro-6-methoxy-5-(trifluoromethyl)-1-naphthalenyl]carbonyl](methoxycarbonyl)amino]acetamide]","% Lowering dulcitol accumulation IN VIVO, D",dulcitol accumulation; [4],N.S.
same,"% Lowering dulcitol accumulation IN VIVO, D",dulcitol accumulation; 10.4 mg/kg,23%
same,"% Lowering dulcitol accumulation IN VIVO, L",dulcitol accumulation; [4],N.S.
same,"% Lowering dulcitol accumulation IN VIVO, L","dulcitol accumulation; 10.4 mg/kg, N.S. = not significant",N.S.
same,inhibition at 10 µM,aldose reductase,2%
same,inhibition at 1 µM,aldose reductase,0%
"CCOC(=O)N(CC(=O)O)C(=O)c1c(F)ccc2c(C(F)(F)F)c(OC)ccc12 [Example 3, N-(Ethoxycarbonyl)-N-[[2-fluoro-6-methoxy-5-(trifluoromethyl)-1-naphthalenyl]carbonyl]glycine]","% Lowering dulcitol accumulation IN VIVO, D",dulcitol accumulation; 15 mg/kg,59%
same,"% Lowering dulcitol accumulation IN VIVO, D",dulcitol accumulation; 25 mg/kg,65%
same,"% Lowering dulcitol accumulation IN VIVO, L",dulcitol accumulation; [3],N.S.
same,"% Lowering dulcitol accumulation IN VIVO, L","dulcitol accumulation; 25 mg/kg, N.S. = not significant",N.S
same,inhibition at 0.04 µM,aldose reductase,67%
same,inhibition at 10 µM,aldose reductase,99%
same,inhibition at 1 µM,aldose reductase,95%
same,inhibition at 0.1 µM,aldose reductase,87%
"COC(=O)N(CC(=O)O)C(=O)c1c(Cl)ccc2c(C(F)(F)F)c(OC)ccc12 [Example 4, N-[[2-Chloro-6-methoxy-5-(trifluoromethyl)-1-naphthalenyl]carbonyl]-N-(methoxycarbonyl)glycine]","% Lowering dulcitol accumulation IN VIVO, D",dulcitol accumulation; 26 mg/kg,68%
same,"% Lowering dulcitol accumulation IN VIVO, L","dulcitol accumulation; 26 mg/kg, N.S. = not significant",N.S.
same,inhibition at 0.04 µM,aldose reductase,57%
same,inhibition at 10 µM,aldose reductase,98%
same,inhibition at 1 µM,aldose reductase,95%
same,inhibition at 0.1 µM,aldose reductase,85%
"COC(=O)N(CC(=O)O)C(=O)c1c(Br)ccc2c(C(F)(F)F)c(OC)ccc12 [Example 5, N-[[2-Bromo-6-methoxy-5-(trifluoromethyl)-1-naphthalenyl]carbonyl]-N-(methoxycarbonyl)glycine]","% Lowering dulcitol accumulation IN VIVO, D",dulcitol accumulation; 51 mg/kg,62%
same,"% Lowering dulcitol accumulation IN VIVO, L","dulcitol accumulation; 51 mg/kg, N.S. = not significant",N.S.
same,inhibition at 0.04 µM,aldose reductase,54%
same,inhibition at 10 µM,aldose reductase,97%
same,inhibition at 1 µM,aldose reductase,92%
same,inhibition at 0.1 µM,aldose reductase,77%
"COC(=O)N(CC(=O)O)C(=O)c1c(OCC(F)(F)F)ccc2c(C(F)(F)F)c(OC)ccc12 [Example 6, N-[[6-Methoxy-2-(2,2,2-trifluoroethoxy)-5-(trifluoromethyl)-1-naphthalenyl]carbonyl]-N-(methoxycarbonyl)glycine]","% Lowering dulcitol accumulation IN VIVO, D",dulcitol accumulation; 27 mg/kg,49%
same,"% Lowering dulcitol accumulation IN VIVO, L",dulcitol accumulation; [5],N.S.
same,inhibition at 0.04 µM,aldose reductase,56%
same,inhibition at 0.1 µM,aldose reductase,83%
"CCOC(=O)N(CC(=O)O)C(=O)c1c(OCC(F)(F)F)ccc2c(C(F)(F)F)c(OC)ccc12 [Example 7, N-(Ethoxycarbonyl)-N-[[6-methoxy-2-(2,2,2-trifluoroethoxy)-5-(trifluoromethyl)-1-naphthalenyl]carbonyl]glycine]","% Lowering dulcitol accumulation IN VIVO, D",dulcitol accumulation; 27 mg/kg,39%
same,"% Lowering dulcitol accumulation IN VIVO, L",dulcitol accumulation; [5],N.S.
same,inhibition at 0.04 µM,aldose reductase,47%
same,inhibition at 10 µM,aldose reductase,98%
same,inhibition at 1 µM,aldose reductase,90%
same,inhibition at 0.1 µM,aldose reductase,78%
"CCOC(=O)N(CC(=O)O)C(=O)c1c(Cl)ccc2c(C(F)(F)F)c(OC)ccc12 [Example 8, N-[[2-Chloro-6-methoxy-5-(trifluoromethyl)-1-naphthalenyl]carbonyl]-N-(ethoxycarbonyl)glycine]","% Lowering dulcitol accumulation IN VIVO, D",dulcitol accumulation; 50 mg/kg,47%
same,"% Lowering dulcitol accumulation IN VIVO, L","dulcitol accumulation; 50 mg/kg, N.S. = not significant",N.S.
same,inhibition at 0.04 µM,aldose reductase,47%
same,inhibition at 0.1 µM,aldose reductase,79%
"CCOC(=O)N(CC(=O)O)C(=O)c1c(Br)ccc2c(C(F)(F)F)c(OC)ccc12 [Example 9, N-[[2-Bromo-6-methoxy-5-(trifluoromethyl)-1-naphthalenyl]carbonyl]-N-(ethoxycarbonyl)glycine]","% Lowering dulcitol accumulation IN VIVO, D",dulcitol accumulation; 43 mg/kg,27%
same,"% Lowering dulcitol accumulation IN VIVO, L","dulcitol accumulation; 43 mg/kg, N.S. = not significant",N.S.
same,inhibition at 0.04 µM,aldose reductase,52%
same,inhibition at 10 µM,aldose reductase,98%
same,inhibition at 1 µM,aldose reductase,93%
same,inhibition at 0.1 µM,aldose reductase,76%
"COc1ccc2c(C(=S)N(C)CC(=O)O)cccc2c1C(F)(F)F [Tolrestat, N-[[6-methoxy-5-(trifluoromethyl)-1-naphthalenyl]thioxo-methyl]-N-methylglycine, reference compound]","% Lowering dulcitol accumulation IN VIVO, L","dulcitol accumulation; 9 mg/kg, N.S. = not significant",N.S.
same,"% Lowering of Sciatic Nerve Polyol Accumulation, Sorbitol (%)",[1]; 6 mg/kg,80%
same,"% Lowering of Sciatic Nerve Polyol Accumulation, Fructose (%)",[2]; 6 mg/kg,63%
